Reference: patent US10918891B2, “Cosmetic treatment method for the skin” (SYNTIVIA, priority 2016, dated 2021)
Marks after values point to notes of the source that are not given here.

Columns and labels:
MMP1 = MMP1 immunofluorescence on human skin explants after repeated UVA irradiation; format: cell-based; conditions: skin explant, (Ia) 100 ppm
Method: In these examples, the protective properties of the compound (Ia) against the damage caused to the DNA and to the extracellular matrix by repeated UVA irradiation, are measured on explants of human skin (NATIVESKIN, Genoskin).
Upon reception of the explants, the latter are topically coated with Carbopol® (Lubrizol)+DMSO for the non-UVA control (CTL without stress) and for the control with stress by UVAs (CTL UVA), and with Carbopol®+compound (Ia) at 100 ppm for the test.
Over three days, the cells are subjected to three stresses with UVAs at a rate of 50 joules per square centimetre.
The first irradiation takes place 24 hours after the treatments. The products are present before, during and after the irradiation. The control without stress is wrapped in aluminium and also placed in the irradiator.
During the irradiation, the explants inserted are disposed in a petri dish with PBS. Fresh medium (Genoskin Culture medium) is added after the irradiation.
After the third day of irradiation, the explants are cultivated for 24 hours, then collected and fixed for 48 hours in formalin (Sigma). The samples are included in paraffin and cut.
A marking of the protein MMP1 by immunofluorescence on a paraffin section is carried out.
The samples are prepared for the fluorescent marking. […]
The sections are mounted on a slide and the fluorescence is quantified using a microscope (Leica DM5000B).

TNFα = assay: Gene expression of TNFα by quantitative RT-PCR in NHEK; format: cell-based, human; conditions: (Ia) 3 ppm (10^−5M), 24 hours
Method: In these examples, the expression of the messenger RNA is measured by the technique of quantitative RT-PCR (reverse transcription followed by polymerase chain reaction), after incubation in vitro of the various cell types in the absence or in the presence of compound (Ia).
This study was carried out on normal human dermal Fibroblasts (NHDF) or normal human epidermal Keratinocytes (NHEK). The compound (Ia) is tested at 10^−5M in an aqueous solution with 0.1% dimethylsulfoxide.
The cells are cultured at the concentration of 10,000 cells per well of 96-well plates, in the presence of standard culture medium according to the cell type.
The compound (Ia) is then added at the concentration (3 ppm), for 24 hours.
The supernatant is eliminated and the cells are taken up in a specific buffer for the extraction of the messenger RNA (mRNA). The mRNA is purified and reverse transcribed in the presence of a commercial reverse transcriptase.
The complementary DNA (cDNA) obtained is quantified by RT-PCR, by means of suitable primers. The rate of expression of the mRNA is normalised with 5 reference genes.
The cells used for this example are normal human keratinocytes (NHEK).

NHEK cells [1] = assay: DNA double-strand breaks (γ-H2AX) induced by cigarette extract in NHEK; format: cell-based, human; conditions: (Ia) 10 ppm pretreatment 24 h and treatment 24 h, cigarette extract 1/50, Control 10346, Cigarette extract 13269
Method: The cells used for this example are normal human Fibroblasts (NHDF) and normal human epidermal Keratinocytes (NHEK).
The cells are cultured at the concentration of 3000 cells per well of 96-well plates in the presence of standard culture medium for NHDF or NHEK (for 24 hours, 37° C., 5% CO2).
After pretreatment of the cells with the compound (Ia) at 10 ppm for 24 hours, the cells are treated with the cigarette extract diluted to 1/50° with or without compound (Ia) at 10 ppm for 24 hours. […].
After washing, the samples are then placed in the presence of DAPI for 10 min in order to mark the nuclei, then rinsed once again. The marked proteins are observed and quantified with an automated fluorescence microscope (ArrayScan® (Cellomics®)). The cells treated by the compound (Ia) are then compared to the untreated cells or to the cells only exposed to the cigarette extract.

NHEK cells [2] = assay: Survival (WST1) of NHEK keratinocytes exposed to cigarette extract, comparison with caffeic acid; format: cell-based, human; conditions: compound 10 ppm pretreatment 24 h and treatment 24 h, cigarette extract 1/50, cigarette extract alone 55% survival, FIG. 4
Method: This study aims to compare the protective or repairing effect of the compounds according to the invention (Ia) and (Ib) with respect to the damage induced on the skin by a cigarette extract. For comparison, caffeic acid (supplier: Acros) is also tested. This acid forms a basic unit of the compounds (Ia) and (Ib) according to the invention.
The NHEK cells are inoculated in a 96-well plate in a suitable medium (Promocell), at a rate of 9000 cells per well, and incubated 24 h at 37° C. and 5% carbon dioxide.
The compounds to be tested are prepared as follows: • (Ia): 10 mg of compound+909 μL of DMSO • (Ib): 7 mg of compound+636 μL of DMSO • caffeic acid: 10 mg of compound+909 μL of DMSO
Each stock solution above is diluted 1000 times, to 10 ppm in the culture medium, then the solutions obtained are filtered by means of a nylon filter (0.22 μm). The final solutions are concentrated to 10 ppm in 0.1% DMSO.
Solutions at 20 ppm in 0.2% DMSO are also prepared in a similar manner, for dilution in the cigarette extract.
An extract of 20 cigarettes is prepared as indicated in example 14 above. This extract is then diluted to 1/50 in the culture medium; or to 2/50 in the culture medium, then to 1/2 in the culture medium, to which the compound to be tested is added at 20 ppm.
The cells are pretreated for 24 h with the compound to be tested at 10 ppm in the culture medium.
The cells are then treated with the cigarette extract diluted to 1/50th with or without the compound tested at 10 ppm for 24 h.
3 h before the end of the test, 10 μl of WST1 cellular proliferation reactant (Roche) are added into each well. The absorbance at 450 nm is measured before and after the addition of WST1 reactant, by means of a Multiskan® reader. The treated cells are compared to the untreated cells and to the cells exposed to the cigarette extract.

Structure (SMILES): Cc1ncc(CO)c(CNC(=O)/C=C/c2ccc(O)c(O)c2)c1O [Compound (Ia)]
- Average fluorescence intensity of the MMP1 marking (AU) (MMP1; CTL UVA 165.2, CTL without stress 141.6): 146.2 AU
- Cells positive for MMP1 based on 100% (MMP1; relative to CTL without stress, CTL UVA +16.7%): +3.2%
- Reduction of the gene expression compared to the basal level based on 100% (TNFα) (TNFα): −45%
- Double-strand breaks of the DNA for NHEK (AU) (NHEK cells [1]): 11193* AU
- % survival of the cells (NHEK cells [2]): 108%
